# Laboratory results reported in PMC7827014, “Synthetic Transition from Thiourea-Based Compounds to Tetrazole Derivatives: Structure and Biological Evaluation of Synthesized New N-(Furan-2-ylmethyl)-1H-tetrazol-5-amine Derivatives” (Molecules, 2021).
# Read-outs that look alike come from different tables or passages of the source.
# Key:
# [1] = system: S. epidermidis KR 4358/2 840/19; assay: MIC microdilution, clinical isolate; assay type: cell-based; details: Staphylococcus epidermidis, KR4358/2840/19
# [2] = system: S. epidermidis T 5253 845/19; assay: MIC microdilution, clinical isolate; assay type: cell-based; details: Staphylococcus epidermidis, T5253845/19
# [3] = system: M. tuberculosis INH susceptible (Spec. 192); assay: In vitro antitubercular MIC; assay type: cell-based; details: Mycobacterium tuberculosis, read-out: Minimal inhibitory concentration
# [4] = system: HTB-140; assay: MTT assay 72 h; assay type: cell-based, human; details: Homo sapiens; HTB-140, MTT 72 h, mean ± SD
# Procedure: (§1) The cell viability was assessed by using an enzymatic conversion of 3-(4,5-dimethylthiazol-2-yl)-2,5-diphenyltetrazolium bromide salt (MTT) to insoluble formazan crystals by mitochondrial dehydrogenases, occurring in living cells. Cells were cultured in 96-well plates at a density of l × 10^4 cells per well, and cultured to adhere for 24 h at 37 °C in a CO2 incubator. After 24 h of incubation, culture medium was replaced with a fresh medium, then cells were treated with various concentrations of the compounds and incubated for 72 h at 37 °C in a CO2 incubator. Untreated cells were used as the control. Subsequently, MTT solution (0,5 mg/mL in free-serum medium) was added, and samples were incubated for 4 h at 37 °C in a CO2 incubator. Then, the medium was aspirated, and formed formazan crystals were solubilized by adding an isopropanol-DMSO mixture (1:1 vol). The intensity of the dissolved crystals was measured using a UVM 340 reader (ASYS Hitech GmbH, Austria), at a wavelength of 570 nm. Cell viability was presented as a percent of MTT reduced in treated cells versus control cells (incubated without tested compounds). The relative MTT level (%) was calculated as [A]/[B]×100, where [A] is the absorbance of the test sample, and [B] is the absorbance of the control sample containing the untreated cells. The IC50 value was estimated using CalcuSyn version 1.0. […]
# (§2) Antiproliferative activity of tested compounds. Data are given as IC50 [µM] and SI.
# (§3) Human immortal keratinocyte cell line from adult human skin (HaCaT), Human colorectal adenocarcinoma (CaCo-2), Human epithelial lung carcinoma cell line (A549) and Human melanoma cell line (HTB-140). Data are expressed as mean ± SD. The SI (Selectivity Index) was calculated for each compound using formula: SI = IC50 for normal cel line / IC50 cancer cel line.
# [5] = system: A549; assay: MTT assay 72 h; assay type: cell-based, human; details: Homo sapiens; A549, MTT 72 h, mean ± SD; read-out: IC50
# Procedure: as §1, §2, §3
# [6] = system: HaCaT; assay: MTT assay 72 h; assay type: cell-based, human; details: Homo sapiens; HaCaT normal cells, MTT 72 h, mean ± SD; read-out: IC50
# Procedure: as §1, §2, §3
# [7] = system: S. aureus T5403/51; assay: MIC microdilution, clinical isolate; assay type: cell-based; details: Staphylococcus aureus
# [8] = system: S. aureus NCTC 4163; assay: MIC microdilution, standard strain; assay type: cell-based; details: Staphylococcus aureus, NCTC4163; S. aureus NCTC 4163, 18 h, 35 °C; read-out: MIC
# [9] = system: E. coli ATCC 25922; assay: MIC microdilution, standard strain; assay type: cell-based; details: Escherichia coli, ATCC25922; E. coli ATCC 25922, 18 h, 35 °C; read-out: MIC
# [10] = system: S. aureus T5241/46; assay: MIC microdilution, clinical isolate; assay type: cell-based; details: Staphylococcus aureus
# [11] = system: E. hirae ATCC 10541; assay: MIC microdilution, standard strain; assay type: cell-based; details: Enterococcus hirae, ATCC10541; E. hirae ATCC 10541, 18 h, 35 °C; read-out: MIC
# [12] = system: Caco-2; assay: MTT assay 72 h; assay type: cell-based; details: Homo sapiens; Caco-2, MTT 72 h, mean ± SD; read-out: IC50
# Procedure: as §1, §2, §3
# [13] = system: S. epidermidis ATCC 12228; assay: MIC microdilution, standard strain; assay type: cell-based; details: Staphylococcus epidermidis, ATCC12228; S. epidermidis ATCC 12228, 18 h, 35 °C; read-out: MIC
# [14] = system: S. aureus 176/13; assay: MIC microdilution, clinical isolate; assay type: cell-based; details: Staphylococcus aureus
# [15] = system: E. coli NCTC 8196; assay: MIC microdilution, standard strain; assay type: cell-based; details: Escherichia coli, NCTC8196; E. coli NCTC 8196, 18 h, 35 °C; read-out: MIC
# [16] = system: M. tuberculosis H37Rv; assay: In vitro antitubercular MIC; assay type: cell-based; details: Mycobacterium tuberculosis, read-out: Minimal inhibitory concentration
# [17] = system: S. epidermidis KR 4313 834/19; assay: MIC microdilution, clinical isolate; assay type: cell-based; details: Staphylococcus epidermidis, KR4313834/19
# [18] = system: S. epidermidis T 5501 851/19; assay: MIC microdilution, clinical isolate; assay type: cell-based; details: Staphylococcus epidermidis, T5501851/19
# [19] = system: hospital staphylococcal isolates; assay: MIC, panel of clinical staphylococcal isolates; assay type: cell-based
# Procedure: (§4) Compounds were screened for their minimal inhibitory concentrations (MICs).
# (§5) The antimicrobial assays were conducted using reference strains of bacteria derived from international microbe collections—American Type Culture Collection (ATCC) and National Collection of Type Culture (NCTC). […] The antimicrobial activity of compounds was expressed by minimum inhibitory concentration values (MICs), according to CLCI reference procedures with some modifications. MIC was tested by the two-fold serial microdilution method (in 96-well microtiter plates) on MH II liquid medium. […] The stock solution of tested compounds was prepared in DMSO, and diluted in sterile medium (to a maximum of 1% of solvent content). […] Clinical microorganisms used in this study were obtained from the collection of the Department of Pharmaceutical Microbiology, Medical University of Warsaw, Poland.
# [20] = system: S. aureus ATCC 29213; assay: MIC microdilution, standard strain; assay type: cell-based; details: Staphylococcus aureus, ATCC29213; S. aureus ATCC 29213, 18 h, 35 °C; read-out: MIC
# [21] = system: S. epidermidis KR 4047 825/19; assay: MIC microdilution, clinical isolate; assay type: cell-based
# [22] = system: standard bacterial strains; assay: MIC, panel of standard bacterial strains; assay type: cell-based
# Procedure: as §4, §5
# [23] = system: S. aureus T5384/48; assay: MIC microdilution, clinical isolate; assay type: cell-based; details: Staphylococcus aureus
# [24] = system: S. epidermidis T 5399 848/19; assay: MIC microdilution, clinical isolate; assay type: cell-based; details: Staphylococcus epidermidis, T5399848/19
# [25] = system: S. aureus 155/6; assay: MIC microdilution, clinical isolate; assay type: cell-based; details: Staphylococcus aureus
# [26] = system: S. epidermidis KR 4243 829/19; assay: MIC microdilution, clinical isolate; assay type: cell-based; details: Staphylococcus epidermidis, KR4243829/19
# [27] = system: S. epidermidis KR 4268 830/19; assay: MIC microdilution, clinical isolate; assay type: cell-based; details: Staphylococcus epidermidis, KR4268830/19
# [28] = system: S. aureus 203/19; assay: MIC microdilution, clinical isolate; assay type: cell-based; details: Staphylococcus aureus
# [29] = system: S. aureus T5595/69; assay: MIC microdilution, clinical isolate; assay type: cell-based; details: Staphylococcus aureus
# [30] = system: S. aureus T5591/68; assay: MIC microdilution, clinical isolate; assay type: cell-based; details: Staphylococcus aureus
smiles,measurement,setting,value
"Fc1ccccc1-n1nnnc1NCc1ccco1 [Compound 6, 1-(2-fluorophenyl)-N-(furan-2-ylmethyl)-1H-tetrazol-5-amine]",MIC,[1],4 µg/mL
same,MIC,[2],8 µg/mL
same,MIC,[3],512 µg/mL
same,IC50,[4],> 100 µM
same,IC50,[5],> 100 µM
same,IC50,[6],> 100 µM
same,MIC,[7],8 µg/mL
same,MIC,[8],8 µg/mL
same,MIC,[9],16 µg/mL
same,MIC,[10],8 µg/mL
same,MIC,[11],16 µg/mL
same,IC50,[12],> 100 µM
same,MIC,[13],32 µg/mL
same,MIC,[14],8 µg/mL
same,MIC,[15],512 µg/mL
same,MIC,[16],512 µg/mL
same,MIC,[17],4 µg/mL
same,MIC,[18],2 µg/mL
same,MIC,"[19]; Staphylococcus aureus, rest of studied Staphylococci, except S. aureus 155/6, read-out: MICs",8 µg/mL
same,MIC,"[19]; Staphylococcus epidermidis, four hospital S. epidermidis isolates, read-out: MIC",4 µg/mL
same,growth inhibitory strength relative to Ciprofloxacin,[19]; two clinical S. epidermidis strains,8–16 fold
same,MIC,[20],8 µg/mL
same,strength relative to Ciprofloxacin,[21]; S. epidermidis KR 4047 825/19 isolate,half of the Ciprofloxacin strength
same,MIC,"[21]; Staphylococcus epidermidis, KR4047825/19, clinical isolate S. epidermidis KR 4047 825/19",8 µg/mL
same,MIC,[22]; some Gram-negative strains,16 µg/mL
same,MIC (range),[22]; standard Staphylococci,8 to 32 µg/mL
same,MIC,[23],8 µg/mL
same,MIC,[24],4 µg/mL
same,MIC,[25],16 µg/mL
same,MIC,[26],4 µg/mL
same,MIC,[27],8 µg/mL
same,MIC,[28],8 µg/mL
same,MIC,[29],8 µg/mL
same,MIC,[30],8 µg/mL
